Assay results from patent US20140113958A1, “HCV Combination Therapy” (priority 2011, published 2014).

Test system: HCV genotype 1b replicon NS5B M423I
Assay type: cell-based
Details: EC50 mutant / EC50 wild-type; mean of two experiments (individual values)

Substance: 5′-^mCs^ocsAs^otstsGs^oTs^ocsas^mCs^oas^mCs^ots^mCs^omC^o-3′ (CCATTGTCACACTCC; all phosphorothioate, sugars by position and methylation of C not given here; further chemistry not fully specified) [miravirsen]
- fold change in susceptibility, NS5B M423I: 1.7 (2.3, 1.0) fold
